Consider 15 compounds from ChEMBL document CHEMBL1130455, “Synthesis and antirheumatic activity of novel tetrahydro-6-quinolineacetic acid derivatives” (1997).

Common to all, as to assay type: functional
In assay [1] the test system is Rattus norvegicus. In words: Inhibitory effect on adjuvant arthritis in rats at a dose of 25 mg/kg, (the value is obtained by comparison between the non-injected paw volumes of the arthritic and control).
Assay [2] deals with Rattus norvegicus. In words: Inhibitory effect on adjuvant arthritis in rats at a dose of 12.5 mg/kg, (the value is obtained by comparison between the non-injected paw volumes of the arthritic and control).
Assay [3] is filed under the species Ovis aries. The experiment in a line: In vitro inhibitory effect of anti-sheep erythrocyte IgM antibody-producing cells, (value is obtained by the number of IgM-PFC in the tested group and that in the control) at a concentration of 2*10e-6M.
Assay [4] deals with Mus musculus. In words: Inhibitory effect on vascular permeability in mice [inhibitory rate of compound 100 mg/kg administered perorally]/[inhibitory rate of diclofenac-Na 25 mg/kg administered perorally].
In assay [5] the test system is Rattus norvegicus. The experiment in a line: Inhibitory effect on adjuvant arthritis in rats at a dose of 50 mg/kg (the value is obtained by comparison between the non-injected paw volumes of the arthritic and control).
Assay [6] has as its system Rattus norvegicus. The experiment in a line: Inhibitory effect on adjuvant arthritis in rats at a dose of 100 mg/kg (the value is obtained by comparison between the non-injected paw volumes of the arthritic and control).
Assay [7] concerns Rattus norvegicus. In words: Inhibitory effect on adjuvant arthritis in rats at a dose of 25 mg/kg (the value is obtained by comparison between the non-injected paw volumes of the arthritic and control).
The subject of assay [8] is Rattus norvegicus. In words: Inhibitory effect on adjuvant arthritis in rats at a dose of 12.5 mg/kg (the value is obtained by comparison between the non-injected paw volumes of the arthritic and control).
Assay [9] concerns Rattus norvegicus. In words: Inhibitory effect on adjuvant arthritis in rats at a dose of 25 mg/kg (the value is obtained by comparison between the non-injected paw volumes of the arthritic and control).
The test system of assay [10] is Rattus norvegicus. In words: Inhibitory effect on adjuvant arthritis in rats at a dose of 10 mg/kg (the value is obtained by comparison between the non-injected paw volumes of the arthritic and control).
For assay [11], the system named is Rattus norvegicus. In words: Inhibitory effect on adjuvant arthritis in rats at a dose of 25.0 mg/kg (the value is obtained by comparison between the non-injected paw volumes of the arthritic and control). The following applies: for inhibition in vivo at 25 mg/kg: Rattus norvegicus.
Assay [12] deals with Mus musculus. In words: Inhibitory effect on vascular permeability in mice [inhibitory rate of compound 50 mg/kg administered perorally]/[inhibitory rate of diclofenac-Na 25 mg/kg administered perorally].
Assay [13] relates to Rattus norvegicus. The experiment in a line: Inhibitory effect on adjuvant arthritis in rats at a dose of 12.5 mg/kg (the value is obtained by comparison between the non-injected paw volumes of the arthritic and control).
The species named for assay [14] is Rattus norvegicus. The experiment in a line: The suppression of calcium release from bone stimulated with PTH in vitro at a concentration of 2.0 ug/mL expressed as percent inhibition of bone resorption.
Assay [15] is filed under the species Rattus norvegicus. In words: The suppression of calcium release from bone stimulated with IL1-beta in vitro at a concentration of 2.0 ug/mL expressed as percent inhibition of bone resorption.
For assay [16], the species on record is Rattus norvegicus. In words: The suppression of calcium release from bone stimulated with PTH in vitro at a concentration of 0.4 ug/mL expressed as percent inhibition of bone resorption.
Assay [17] has as its system Rattus norvegicus. In words: Bone damage score on day 27(the result of radiolgic analysis of non-injected paws on day 27) the bone destruction advances in the articular of adjuvant arthritic rat at a dose of 25 mg/kg.
Assay [18] is filed under the species Rattus norvegicus. In words: The suppression of calcium release from bone stimulated with IL1-beta in vitro at a concentration of 10.0 ug/mL expressed as percent inhibition of bone resorption.
For assay [19], the species on record is Rattus norvegicus. The experiment in a line: The suppression of calcium release from bone stimulated with IL1-beta in vitro at a concentration of 0.4 ug/mL expressed as percent inhibition of bone resorption.
Assay [20] is filed under the species Rattus norvegicus. In words: The suppression of calcium release from bone stimulated with PTH in vitro at a concentration of 10.0 ug/mL expressed as percent inhibition of bone resorption.
The test system of assay [21] is Rattus norvegicus. The experiment in a line: Inhibitory effect on adjuvant arthritis in rats at a dose of 6.3 mg/kg (the value is obtained by comparison between the non-injected paw volumes of the arthritic and control).
Assay [22] deals with Rattus norvegicus. The experiment in a line: Bone damage score on day 27(the result of radiolgic analysis of non-injected paws on day 27) the bone destruction advances in the articular of adjuvant arthritic rat at a dose of 0.5 mg/kg.

By inhibition in vivo is commonly meant the percentage by which the read-out fell short of the control. One may read the Inhibition as the percentage by which the read-out fell short of the control.

As for `CC1CCc2cc(CC(=O)O)cc(Cl)c2N1` (stereo not given), the inhibition in vivo at 25 mg/kg in assay [1] was found to be 56%. Also, the inhibition in vivo at 12.5 mg/kg in [2] is 42%. Further, the Inhibition in assay [3] is reported as 60%. Further, the inhibition ratio vs diclofenac in [4] turned out to be 1.94.

On to `O=C(O)Cc1cc(Cl)c2c(c1)CCC(c1ccccc1F)N2` (stereo not given), for which the inhibition in vivo at 50 mg/kg in [5] was determined as 52%. Further, the inhibition ratio vs diclofenac in [4] came out at 2.09. The inhibition in vivo at 100 mg/kg in assay [6] was 64%. In assay [7], the inhibition in vivo at 25 mg/kg is 19%.

Regarding `CCCC1CCc2cc(CC(=O)O)cc(Cl)c2N1` (stereo not given), the inhibition in vivo at 12.5 mg/kg in assay [8] came out at 32%. In assay [9], the inhibition in vivo at 25 mg/kg was 47%. Further, the inhibition ratio vs diclofenac in assay [4] was found to be 1.59.

Regarding `O=C(O)Cc1cc(Cl)c2c(c1)CCCN2`, the inhibition in vivo at 10 mg/kg in assay [10] amounted to 27%. The inhibition in vivo at 50 mg/kg in assay [5] was found to be 20%. Also, in [4], the inhibition ratio vs diclofenac was 1.44. For the same compound, the inhibition in vivo at 100 mg/kg in assay [6] is 55%.

For `CC1(C)CCc2cc(CC(=O)O)cc(Cl)c2N1`, in assay [4], the inhibition ratio vs diclofenac worked out at 1.22.

Turning to `O=C(O)Cc1cc(Cl)c2c(c1)CCC(C(=O)O)N2` (stereo not given), the inhibition ratio vs diclofenac in assay [4] was found to be 0.

Regarding `O=C(O)Cc1ccc2c(c1)CCCN2`, in assay [4], the inhibition ratio vs diclofenac was 1.06.

On to `CCC1CCc2cc(CC(=O)O)cc(Cl)c2N1` (stereo not given), for which, in [4], the inhibition ratio vs diclofenac is 1.54.

Take `O=C(O)Cc1cc(Cl)c2c(c1)CCC(C(F)(F)F)N2` (stereo not given): the inhibition in vivo at 12.5 mg/kg in assay [8] is 36%. Besides, the Inhibition is given as 46% in [11] (25 mg/kg) and 71% in assay [3]. For the same compound, in [11], the inhibition in vivo at 25 mg/kg turned out to be 45%. Moreover, the inhibition ratio vs diclofenac in assay [12] was 0.99; in assay [4], 1.48.

Take `CC(C)C1CCc2cc(CC(=O)O)cc(Cl)c2N1` (stereo not given): the inhibition ratio vs diclofenac in assay [4] was 1.1.

As for `O=C(O)Cc1cc(Cl)c2c(c1)CCC(c1ccccc1)N2` (stereo not given), the inhibition ratio vs diclofenac in [4] amounted to 1.63.

For the compound `COc1ccc(C2CCc3cc(CC(=O)O)cc(Cl)c3N2)cc1` (stereo not given), the inhibition ratio vs diclofenac in assay [4] was 0.62.

In the case of `O=C(O)Cc1cc(Cl)c2c(c1)CC[C@H](C(F)(F)F)N2`, in assay [13], the inhibition in vivo at 12.5 mg/kg was 3%. Also, in assay [11], the inhibition in vivo at 25 mg/kg amounted to 20%. Moreover, the inhibition ratio vs diclofenac in assay [12] is 0.43; in assay [4], 1.5.

For `O=C(O)Cc1cc(Cl)c2c(c1)CC[C@@H](C(F)(F)F)N2`, in assay [8], the inhibition in vivo at 12.5 mg/kg came to 34%. Besides, the Inhibition in [14] was 61%; in assay [15] it was 78%; in assay [16], 41%; in assay [18], 97%; in [19] it was 24%; in assay [20], 94%. The inhibition in vivo at 25 mg/kg in assay [11] was determined as 60%. For the same compound, the inhibition ratio vs diclofenac in [12] worked out at 1.28; in assay [4], 1.62. In assay [17], the Bone damage score was determined as 2.5. Moreover, the inhibition in vivo at 6.3 mg/kg in [21] was found to be 25%.

As for `O=C([O-])Cc1ccccc1Nc1c(Cl)cccc1Cl.[Na+]` [DICLOFENAC SODIUM], the Bone damage score in assay [22] came to 4.3.
